Data: PubChem BioAssay (NCI)
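Values below derive from 48-hour exposures of cells grown in 96-well plates, with endpoints linearly interpolated between the two concentrations bracketing the appropriate inhibition level. The concentration for full growth arrest is given as TGI.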

Experiments:
Experiment in all cases: NCI-60 cell line screen, 48 h
MDA-MB-231 breast = test system: MDA-MB-231 breast
LXFL 529 NSCLC = test system: LXFL 529 NSCLC
DLD-1 colon = test system: DLD-1 colon
DMS 114 small cell lung = test system: DMS 114 small cell lung
SNB-78 CNS = test system: SNB-78 CNS
XF 498 CNS = test system: XF 498 CNS
HOP-18 NSCLC = test system: HOP-18 NSCLC
DMS 273 small cell lung = test system: DMS 273 small cell lung
M19-MEL melanoma = test system: M19-MEL melanoma
KM20L2 colon = test system: KM20L2 colon
RXF-631 renal = test system: RXF-631 renal

For `COc1ccc(-n2c(C)nc3ccc(NC4OCC(OC(C)=O)C(OC(C)=O)C4OC(C)=O)cc3c2=O)cc1` (stereo not drawn), the TGI (MDA-MB-231 breast) was > 100 µM.

For `CCc1n[nH]c(=O)n1N`, the TGI (MDA-MB-231 breast) was > 100 µM.

`COc1ccc(/C=N/n2c(Cc3ccccc3)n[nH]c2=O)c(OC)c1` was tested, and the TGI (MDA-MB-231 breast) was > 62.7 µM.

For `C=C(Cl)C(Cl)(CBr)CCCC(C)C` (stereo not drawn), the TGI (MDA-MB-231 breast) was > 69.5 µM.

`COC(=O)c1ccc(C)cc1C1CN=NC12Cc1c(C)cccc1C2=O` (stereo not drawn) was tested, and the TGI (MDA-MB-231 breast) was > 100 µM.

For `N#Cc1ccc(N=NN2CCCC2)cc1`, the TGI (MDA-MB-231 breast) was > 100 µM.

`CC1=CC(=O)c2ccc3c4ccccc4n(C)c3c2C1=O` was tested, and the TGI (LXFL 529 NSCLC) was > 100 µM, the TGI (DLD-1 colon) was > 100 µM and the TGI (DMS 114 small cell lung) was 97.1 µM. The TGI (SNB-78 CNS) was > 100 µM, the TGI (XF 498 CNS) was > 100 µM and the TGI (HOP-18 NSCLC) was 42.2 µM. The TGI (DMS 273 small cell lung) was > 100 µM, the TGI (MDA-MB-231 breast) was > 100 µM and the TGI (M19-MEL melanoma) was 38.2 µM.

For `N#Cc1ccccc1NC(=O)C(O)C(O)C(O)C(O)C=O` (stereo not drawn), the TGI (MDA-MB-231 breast) was > 100 µM.

`CN(C)Cc1cc(C(=O)/C=C/c2ccc(Cl)cc2Cl)cc(CN(C)C)c1O` gave a TGI (MDA-MB-231 breast) of 6.53 µM.

For `CCOC(=O)/C(=C\n1c(=O)sc2ccccc21)C(=O)c1ccccc1`, the TGI (MDA-MB-231 breast) was > 100 µM.

`COc1cc(C(C)c2cc3c(cc2OCCCCCOc2cc4c(cc2C(C)c2cc(OC)c(OC)c(OC)c2)OCO4)OCO3)cc(OC)c1OC` (stereo not drawn) was tested, and the TGI (LXFL 529 NSCLC) was > 100 µM, the TGI (DLD-1 colon) was > 100 µM and the TGI (KM20L2 colon) was > 100 µM. For the same compound, the TGI (DMS 273 small cell lung) was > 100 µM and the TGI (M19-MEL melanoma) was > 100 µM.

`C=Cc1c(-c2ccccc2)cnc2[nH]c3ccccc3c12` was tested, and the TGI (LXFL 529 NSCLC) was > 50 µM, the TGI (DLD-1 colon) was > 50 µM and the TGI (DMS 114 small cell lung) was > 50 µM. For the same compound, the TGI (XF 498 CNS) was > 50 µM, the TGI (DMS 273 small cell lung) was > 50 µM and the TGI (M19-MEL melanoma) was > 50 µM.

With `COc1cc(Br)c(/C=N/N=C(\N)NO)cc1OC` the TGI (LXFL 529 NSCLC) was > 100 µM, the TGI (RXF-631 renal) was > 100 µM and the TGI (DLD-1 colon) was > 100 µM. The TGI (DMS 114 small cell lung) was 33.6 µM, the TGI (KM20L2 colon) was 47.2 µM and the TGI (SNB-78 CNS) was > 100 µM. The TGI (XF 498 CNS) was 69.6 µM, the TGI (HOP-18 NSCLC) was > 100 µM and the TGI (DMS 273 small cell lung) was > 100 µM. The TGI (M19-MEL melanoma) was 76.2 µM.

For `CCc1cccc(CC)c1Nc1nc(-c2ccccc2-c2ccccc2)cs1`, the TGI (MDA-MB-231 breast) was > 100 µM.

For `COC(=O)C(C(=O)C(=O)Nc1nc2ccc(OC)cc2s1)c1cnc2ccccc2n1` (stereo not drawn), the TGI (LXFL 529 NSCLC) was > 100 µM, the TGI (DLD-1 colon) was > 100 µM and the TGI (KM20L2 colon) was > 100 µM. The TGI (SNB-78 CNS) was > 100 µM, the TGI (XF 498 CNS) was > 100 µM and the TGI (M19-MEL melanoma) was > 100 µM.

With `CC(=O)/C=C1/C(=O)C(CC(C)C)=C1CC(C)C` the TGI (MDA-MB-231 breast) was > 100 µM.

Work on `C1=C(c2ccccc2)NC2=N[C@H]3CCCC[C@@H]3N2C1c1ccccc1` (stereo partly drawn) yielded a TGI (MDA-MB-231 breast) of 30.2 µM.
